Assay results: patent US9120776B2, “Condensed heterocyclic compound” (Takeda Pharmaceutical Company Limited, priority 2011, dated 2015)

Tests used:
RORγt [1] = biological target: T1, RORγt (Homo sapiens, UniProt P51449); test: Cofactor Recruitment Test (Alpha Screen, biotinylated SRC-1 peptide); type: biochemical; design: histidine tag (implied by the Histidine Detection Kit); settings: signal value inhibitory rate at test compound 1 μM
T1 sequence (P51449 1-497 isoform P51449-2): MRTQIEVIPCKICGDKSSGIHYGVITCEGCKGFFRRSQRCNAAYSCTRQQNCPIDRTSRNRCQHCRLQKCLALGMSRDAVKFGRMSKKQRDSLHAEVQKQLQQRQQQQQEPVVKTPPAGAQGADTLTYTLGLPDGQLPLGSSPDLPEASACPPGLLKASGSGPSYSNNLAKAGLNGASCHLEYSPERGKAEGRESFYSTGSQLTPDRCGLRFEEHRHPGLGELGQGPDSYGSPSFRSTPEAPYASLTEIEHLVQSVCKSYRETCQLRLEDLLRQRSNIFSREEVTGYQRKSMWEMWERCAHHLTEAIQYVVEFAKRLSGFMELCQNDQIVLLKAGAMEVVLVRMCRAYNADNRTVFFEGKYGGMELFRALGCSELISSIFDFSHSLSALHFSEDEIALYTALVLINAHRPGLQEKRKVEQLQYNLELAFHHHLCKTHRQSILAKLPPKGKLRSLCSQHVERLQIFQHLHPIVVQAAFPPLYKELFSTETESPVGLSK
Protocol: Cofactor recruitment test was performed by Alpha Screen (Histidine Detection Kit, PerkinElmer) method. First, a test compound diluted with an assay buffer (50 mM Tris-HCl (pH 7.5), 50 mM KCl, 1 mM DTT, 0.1% BSA) was added to a 384 well plate by 5 μL each. […] The mixture was stood in a dark place for 1 hr, and the signal value was measured by Envision (PerkinElmer).

RORγt [2] = biological target: T1, RORγt; test: Jurkat Reporter Test (human IL-17 ROR response element luciferase, RORγt vector); type: cell-based; settings: luminescence level inhibitory rate at test compound 3 μM, Jurkat cells; read-out: inhibitory rate (%)
Protocol: The Jurkat cells used for the reporter test were cultured in a culture medium (RPMI (Invitrogen), 10% FCS (AusGeneX), 100 U/mL penicillin, 100 μg/mL streptomycin). On the day of the test, 4×10^7 cells were recovered by a centrifugal operation (1000 rpm, 5 min.) and suspended in PBS (phosphate buffered saline) (Invitrogen). Thereafter, the cells were recovered again by a centrifugal operation, and suspended in 2 mL of R buffer (NEON transfection kit, Invitrogen). […] Gene transfer was performed by Electroporation apparatus (NEON, Invitrogen) under the conditions of pulse voltage 1350 V, interval 10 milliseconds, number of times 3. The cells after gene transfer were suspended in 40 mL of a reaction medium (RPMI, 10% Lipid reduced FCS (HyClone), 10 mM HEPES (pH 7.5), 100 U/mL penicillin, 100 μg/mL streptomycin, 5 μM lovastatin), and plated in a 96 well plate by 90 μL each. A test compound diluted with the reaction medium was added by 10 μL each, and the cells were cultured overnight in an incubator. Bright-Glo (Promega) was added by 100 μL each, and the mixture was stirred at room temperature for 10 min, and the luminescence level was measured by Envision (PerkinElmer).

Th17 cells [3] = test: Human Th17 Cell Differentiation Test (IL-17A in culture supernatant, ELISA); type: cell-based; settings: 144 h; inhibitory rate at 10 μM of test compound; human CD4 positive naive T cells, 6 days, IL-17A by ELISA
Protocol: CD4 positive naive T cells were isolated from peripheral blood mononuclear cells (PBMC) collected from human peripheral blood by a density gradient centrifugation method. The CD4 positive naive T cells were seeded in a 96 well plate (2×10^4 cells/well), and stimulated (37° C. for culture) with anti-CD 3/28Ab Dynabeads (Invitrogen) for 6 days in the presence of IL-1β, IL-6, IL-23, TGFβ, anti-IFNγ Ab (BioLegend) and anti-IL-4 Ab (BioLegend) to differentiate into Th17 cells. The compound was dissolved in DMSO and then added thereto. After culture for 6 days, the concentration of IL-17A in the culture supernatant obtained by centrifugation was measured by ELISA to evaluate differentiation of the Th17 cells.

Th17 cells [4] = test: Mouse Th17 Cell Differentiation Test (IL-17A in culture supernatant, ELISA); type: cell-based; settings: 96 h, inhibitory rate at 10 μM of test compound, mouse CD4 positive naive T cells, 4 days, IL-17A by ELISA
Protocol: CD4 positive naive T cells were collected from the spleen cells of BALB/c mice (female, 8-11w, Charles River Laboratories Japan, Inc.) using CD4+CD62L+ T Cell Isolation kit II (Miltenyi Biotec). The CD4 positive naive T cells in a 96 well plate (3×10^5 cells/well) were stimulated (37° C. for culture) with anti-mouse CD3ε antibody (Bio X cell) (10 μg/mL, solid phase) and anti-CD28 antibody (Bio X cell) (5 μg/mL) for 4 days in the presence of anti-IFN-γ antibody (BioLegend), anti-IL-4 antibody (BioLegend), anti-IL-2 antibody (BioLegend), IL-6, TGF-β and IL-23 to differentiate into Th17 cells. The compound was dissolved in DMSO and then added thereto. The cells were cultured under these conditions for 4 days, and differentiation of the Th17 cells was evaluated by using the concentration of IL-17A, which was measured by ELISA, in the culture supernatant obtained by centrifugation.

RORγt [5] = biological target: T1, RORγt; test: RORγt Binding Test (TR-FRET, fluorescent-labeled cholesterol); design: histidine tag (implied by the Histidine Detection Kit); settings: binding inhibitory rate of fluorescent-labeled cholesterol to RORγt at test compound 1 μM
Protocol: The binding activity of the test compound to RORγt was measured by a time resolved fluorescence resonance energy transfer method (TR-FRET) utilizing histidine-tagged RORγt, fluorescent-labeled cholesterol (BODIPY-cholesterol, AVIVA) and terbium-labeled anti-histidine tag antibody (Invitrogen). First, a test compound diluted with an assay buffer (20 mM Tris-HCl (pH 7.5), 100 mM NaCl, 1 mM DTT, 0.1% BSA) was added to a 384 well plate by 3 μL each. Then, RORγt diluted with an assay buffer to 240 nM was added by 3 μL each, after which fluorescent-labeled cholesterol diluted with the assay buffer to 12 μM was added by 3 μL each, and the mixture was stood at room temperature for 20 min. Thereafter, a terbium-labeled anti-histidine tag antibody diluted with the assay buffer to 8 nM was added by 3 μL each. The mixture was stood at room temperature for 20 min, and fluorescence intensity (excitation wavelength 320 nm, fluorescence wavelength 520 nm, delay time 100 microseconds) was measured by Envision (PerkinElmer).

human PBMC = test: IL17 Production Test in Human PBMC; type: cell-based; settings: 72 h, inhibitory rate at 10 μM of test compound, anti-CD3/CD28 stimulation, 3 days, IL-17A by ELISA
Protocol: Peripheral blood mononuclear cells (PBMC) collected from human peripheral blood by a density gradient centrifugation method were stimulated by Dynabeads (registered trade mark; anti-CD3/CD28 antibody) and cultured at 37° C. for 3 days. The compound was dissolved in DMSO and then added thereto. After culture for 3 days under such conditions, the concentration of IL-17A in the culture supernatant obtained by centrifugation was measured by ELISA to evaluate the effect of the compound on IL-17 production.

SMILES	inhibition at 1 µM (RORγt [1])	inhibition at 3 µM (RORγt [2])	inhibition at 10 µM (Th17 cells [3])	inhibition at 10 µM (Th17 cells [4])	inhibition at 1 µM (RORγt [5])	inhibition at 10 µM (human PBMC)	inhibition at 10 µM (Th17 cells [4]; Mus musculus, CD4 positive)
CC(C)Cn1c2c(c3cc(NC(=O)CC(C)CC(=O)Nc4ccc(C#N)cc4)ccc31)CCCC2 (stereo not drawn) [Example 20, N-(4-cyanophenyl)-3-methyl-N′-[9-(2-methylpropyl)-2,3,4,9-tetrahydro-1H-carbazol-6-yl]pentanediamide]	101%	102%	89.9%	95.8%	98.7%	84%	–
CCn1c2c(c3cc(NC(=O)CC(C)CC(=O)Nc4ccc(C#N)cc4)ccc31)CCCC2 (stereo not drawn) [Example 4, N-(4-cyanophenyl)-N′-(9-ethyl-2,3,4,9-tetrahydro-1H-carbazol-6-yl)-3-methylpentanediamide]	–	–	100%	–	–	88.3%	97%
CCn1c2ccccc2c2cc(NC(=O)CC(C)(O)CCOc3ccc(C#N)c(Cl)c3)ccc21 (stereo not drawn) [Example 30, 5-(3-chloro-4-cyanophenoxy)-N-(9-ethyl-9H-carbazol-3-yl)-3-hydroxy-3-methylpentanamide]	100%	92.5%	100%	96.1%	94.4%	100%	–
CCn1c2ccccc2c2cc(NC(=O)CC(C)CC(=O)Nc3ccc(C#N)c(C(F)(F)F)c3)ccc21 (stereo not drawn) [Example 18, N-[4-cyano-3-(trifluoromethyl)phenyl]-N′-(9-ethyl-9H-carbazol-3-yl)-3-methylpentanediamide]	–	–	98.5%	–	–	96%	95.8%
CCn1c2ccccc2c2cc(NC(=O)CCCC(=O)Nc3ccc(C#N)cc3)ccc21 [Example 16, N-(4-cyanophenyl)-N′-(9-ethyl-9H-carbazol-3-yl)pentanediamide]	–	–	96.2%	–	–	91%	96%
CCCn1c2c(c3cc(NC(=O)CC(C)CC(=O)Nc4ccc(C#N)cc4)ccc31)CCCC2 (stereo not drawn) [Example 19, N-(4-cyanophenyl)-3-methyl-N′-(9-propyl-2,3,4,9-tetrahydro-1H-carbazol-6-yl)pentanediamide]	101%	103%	95.2%	95.8%	98.9%	87%	–
CCn1c(C)c(C)c2cc(NC(=O)CC(C)CC(=O)Nc3ccc(C#N)cc3)ccc21 (stereo not drawn) [Example 3, N-(4-cyanophenyl)-N′-(1-ethyl-2,3-dimethyl-1H-indol-5-yl)-3-methylpentanediamide]	99.7%	82.6%	80%	97.1%	88.2%	73.3%	–
